Laboratory results taken from ChEMBL document CHEMBL4622860, “The relationship between the structure and toxicity of aminoglycoside antibiotics” (Bioorg Med Chem Lett, 2020).

Tests used:
[1] = Ototoxicity against C57BL/6 mouse cochlea hair cells assessed as reduction in cell viability at 0.1 mM incubated for 23 hrs by FITC-phalloidin staining-based assay; assay type: toxicity; conditions: read-out: INH
[2] = Nephrotoxicity in human patients assessed as proportion of patients with higher serum creatinine level; assay type: toxicity; conditions: in vivo

NC[C@@H]1O[C@H](O[C@H]2[C@@H](O)[C@H](O[C@@H]3[C@@H](O)[C@H](N)C[C@H](N)[C@H]3O[C@H]3O[C@H](CN)[C@@H](O)[C@H](O)[C@H]3N)O[C@@H]2CO)[C@H](N)[C@@H](O)[C@@H]1O [FRAMYCETIN]
cytotoxicity at 23 h, 100 µM [1]: 20%

NC[C@@H]1O[C@H](O[C@H]2[C@@H](O)[C@H](O[C@@H]3[C@@H](O)[C@H](N)C[C@H](N)[C@H]3O[C@H]3O[C@H](CO)[C@@H](O)[C@H](O)[C@H]3N)O[C@@H]2CO)[C@H](N)[C@@H](O)[C@@H]1O [PAROMOMYCIN]
cytotoxicity at 23 h, 100 µM [1]: 4%

CN[C@@H]1[C@@H](O)[C@@H](O[C@@H]2[C@@H](O)[C@H](O[C@H]3OC(CNCCO)=CC[C@H]3N)[C@@H](N)C[C@H]2NC(=O)[C@@H](O)CCN)OC[C@]1(C)O [PLAZOMICIN]
Activity [2]: 7%
